Patent US20240360151A1 (SANOFI, priority 2023, published 2024)

Target: T1, NLRP3 inflammasome (Homo sapiens, UniProt Q96P20)
T1 construct: endogenous in cells; host or cells: THP-1 monocytic cells
Test: IL-1β secretion assay (NLRP3 IC50) in LPS-primed, nigericin-activated THP-1 cells, HTRF
Assay type: cell-based
Conditions: monocytic THP-1 cells; LPS 10 ng/mL 3 h priming, then compound + nigericin 10 μM 2 h; relative IC50, 10 concentrations, geometric mean
Protocol: Monocytic THP-1 cells were maintained in RPMI 1640 media (Gibco 21875)+10% FBS, (Gibco 10500)+1% penicillin/streptomycin (Gibco 15140-122). Cells were then plated at 40,000 cells per well in 384-well cell culture plates (CoRNning 3542) and maintained with RPMI1640 (Gibco 11835)+5% FBS (Gibco 10500). Activation of the NLRP3 inflammasome requires both an NF-kB-dependent priming step and the addition of a NLRP3 activator. The priming step was induced by LPS (10 ng/mL, InvivoGen ref tlrl-3pelps) for 3 h at 37° C., then compound, in a 1:3 serial dilution series in DMSO (final concentration DMSO 0.1%), and the activator nigericin (Sigma Aldrich, ref: SML1779) 10 μM (final concentration) were added to the cells and co-incubated for 2 hours. 16 μL supernatant was removed, and IL-1β levels were monitored using an HTRF assay (Human IL1b Kits HTRF Cisbio ref: 62HILBPEH) according to manufacturers' instructions.
Data were expressed as percentage of inhibition (I %) as compared to a maximum signal control containing no small molecule (I %=0%) according to the formula: 1%=(1−((Sample−Min))/((Max−Min)))×100, where: • Sample: Signal obtained in the presence of each compound tested, • Max: Maximum signal in the absence of compound added, • Min: Minimum or background signal obtained in the absence of activation signal.
Relative IC50 (IC50 rel) were obtained from a dose response curve with 10 concentrations. Final IC50 rels are expressed as the geometric mean.
Relative IC50 values were estimated with Biost@t-SPEED v2.4 internal software based on SAS system using the 4-parameter logistic model according to Ratkovsky and Reedy (D. A. Ratkovsky, T. J. Reedy, Choosing near-linear parameters in the four parameters logistic model radioligands and related assays. Biometrics, 42 (1986), 575-582): Y=A+C/((1+exp(−B*(log(X)−M)))), where: • A: Lower asymptote (BOTTOM), • A+C: Upper asymptote (TOP), • M: the logarithm of the concentration estimated at the inflexion point (the logarithm of the relative IC50), • B: Slope at the inflexion point of the curve.

T1 sequence (Q96P20 whole entry): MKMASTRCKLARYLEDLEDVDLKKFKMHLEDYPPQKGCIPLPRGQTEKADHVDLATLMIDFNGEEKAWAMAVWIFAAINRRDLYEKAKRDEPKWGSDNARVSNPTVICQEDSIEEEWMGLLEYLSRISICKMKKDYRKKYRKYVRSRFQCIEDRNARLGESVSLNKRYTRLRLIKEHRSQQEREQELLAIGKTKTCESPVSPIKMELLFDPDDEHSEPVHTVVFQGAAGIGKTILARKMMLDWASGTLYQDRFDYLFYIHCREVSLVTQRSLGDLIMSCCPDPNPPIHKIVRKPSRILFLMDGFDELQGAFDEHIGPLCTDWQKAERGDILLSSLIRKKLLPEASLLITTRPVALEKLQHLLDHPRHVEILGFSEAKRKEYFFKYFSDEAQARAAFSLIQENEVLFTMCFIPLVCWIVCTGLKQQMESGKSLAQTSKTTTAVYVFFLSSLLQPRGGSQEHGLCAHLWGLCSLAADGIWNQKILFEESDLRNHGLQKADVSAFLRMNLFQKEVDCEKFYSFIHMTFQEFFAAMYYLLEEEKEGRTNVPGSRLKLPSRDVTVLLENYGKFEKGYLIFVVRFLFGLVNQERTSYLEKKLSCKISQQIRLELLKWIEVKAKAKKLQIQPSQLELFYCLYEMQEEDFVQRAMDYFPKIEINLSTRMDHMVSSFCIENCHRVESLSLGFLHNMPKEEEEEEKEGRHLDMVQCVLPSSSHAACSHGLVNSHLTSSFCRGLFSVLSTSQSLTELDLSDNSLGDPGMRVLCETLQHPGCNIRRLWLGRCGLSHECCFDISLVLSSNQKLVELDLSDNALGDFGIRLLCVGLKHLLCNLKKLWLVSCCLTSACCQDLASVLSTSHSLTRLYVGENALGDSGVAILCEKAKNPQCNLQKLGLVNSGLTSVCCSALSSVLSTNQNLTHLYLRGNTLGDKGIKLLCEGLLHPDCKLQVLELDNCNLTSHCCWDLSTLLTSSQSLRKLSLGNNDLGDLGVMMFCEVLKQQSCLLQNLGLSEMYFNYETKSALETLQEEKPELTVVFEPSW

SMILES	IC50 [nM]
CCc1cc(C)cc(O)c1-c1ccc(N2CC[C@@H]3CCN(C)C[C@@H]32)nn1 (single isomer, unassigned) [Example 477]	< 0.3
CN1CC[C@@H]2CCN(c3cc(C(F)F)c(-c4ccc(C(F)(F)F)cc4O)nn3)[C@@H]2C1 (single isomer, unassigned) [Example 482]	172
CN1CC[C@H]2CCN(c3cc(C(F)F)c(-c4ccc(C(F)(F)F)cc4O)nn3)[C@H]2C1 (single isomer, unassigned) [Example 483]	1
CCN1CC[C@@H]2CCN(c3cc(C(F)F)c(-c4ccc(C(F)(F)F)cc4O)nn3)[C@@H]2C1 (single isomer, unassigned) [Example 485]	45
CCN1CC[C@H]2CCN(c3cc(C(F)F)c(-c4ccc(C(F)(F)F)cc4O)nn3)[C@H]2C1 (single isomer, unassigned) [Example 486]	< 0.3
Cc1cc(C)c(-c2cc(C(F)F)c(N3CC[C@H]4CCN(C)C[C@H]43)nn2)c(O)c1 (single isomer, unassigned) [Example 487]	1
Cc1cc(C)c(-c2cc(C(F)F)c(N3CC[C@@H]4CCN(C)C[C@@H]43)nn2)c(O)c1 (single isomer, unassigned) [Example 488]	912
CCN1CC[C@@H]2CCN(c3cc(C(F)F)c(-c4ccc(C)cc4O)nn3)[C@@H]2C1 (single isomer, unassigned) [Example 489]	232
CCN1CC[C@H]2CCN(c3cc(C(F)F)c(-c4ccc(C)cc4O)nn3)[C@H]2C1 (single isomer, unassigned) [Example 490]	1
CCc1cc(C(F)(F)F)cc(O)c1-c1ccc(N2CC[C@H]3CCN(C)C[C@H]32)nn1 (single isomer, unassigned) [Example 491]	185
CCc1cc(C(F)(F)F)cc(O)c1-c1ccc(N2CC[C@@H]3CCN(C)C[C@@H]32)nn1 (single isomer, unassigned) [Example 492]	3
CCc1cc(Cl)cc(O)c1-c1ccc(N2CC[C@H]3CCN(C)C[C@H]32)nn1 (single isomer, unassigned) [Example 493]	171
CCc1cc(Cl)cc(O)c1-c1ccc(N2CC[C@@H]3CCN(C)C[C@@H]32)nn1 (single isomer, unassigned) [Example 494]	1
CCN1CC[C@H]2CCN(c3ccc(-c4c(C)cc(Cl)cc4O)nn3)[C@H]2C1 (single isomer, unassigned) [Example 496]	546
CCN1CC[C@H]2CCN(c3ccc(-c4c(C)cc(Cl)cc4O)nn3)[C@H]2C1 (single isomer, unassigned) [Example 497]	0.4
CCN1CC[C@H]2CCN(c3ccc(-c4c(C)cccc4O)nn3)[C@H]2C1 (single isomer, unassigned) [Example 498]	951
CCN1CC[C@@H]2CCN(c3ccc(-c4c(C)cccc4O)nn3)[C@@H]2C1 (single isomer, unassigned) [Example 499]	3
CN1CC[C@H]2CCN(c3cc(C(F)F)c(-c4ccc(Cl)cc4O)nn3)[C@H]2C1 (single isomer, unassigned) [Example 500]	62
CN1CC[C@@H]2CCN(c3cc(C(F)F)c(-c4ccc(Cl)cc4O)nn3)[C@@H]2C1 (single isomer, unassigned) [Example 501]	< 0.3
Cc1cc(Cl)cc(O)c1-c1ccc(N2CC[C@@H]3CCN(C)C[C@@H]32)nn1 (single isomer, unassigned) [Example 502]	347
Cc1cc(Cl)cc(O)c1-c1ccc(N2CC[C@H]3CCN(C)C[C@H]32)nn1 (single isomer, unassigned) [Example 503]	0.5

SMILES	IC50 [nM]
CCN1CC[C@H]2CCN(c3ccc(-c4c(C)cc(C)cc4O)nn3)[C@H]2C1 (single isomer, unassigned) [Example 504]	1080
CCN1CC[C@@H]2CCN(c3ccc(-c4c(C)cc(C)cc4O)nn3)[C@@H]2C1 (single isomer, unassigned) [Example 505]	0.4
Cc1ccc(-c2nnc(N3CC[C@@H]4CCN(C)C[C@@H]43)cc2C(F)F)c(O)c1 (single isomer, unassigned) [Example 506]	135
Cc1ccc(-c2nnc(N3CC[C@H]4CCN(C)C[C@H]43)cc2C(F)F)c(O)c1 (single isomer, unassigned) [Example 507]	1
CC(=O)N1CC[C@@H]2CCN(c3cc(C(F)F)c(-c4ccc(C(F)(F)F)cc4O)nn3)[C@@H]2C1 (single isomer, unassigned) [Example 510]	280
CC(=O)N1CC[C@H]2CCN(c3cc(C(F)F)c(-c4ccc(C(F)(F)F)cc4O)nn3)[C@H]2C1 (single isomer, unassigned) [Example 511]	571
CC(=O)N1CC[C@@H]2CCN(c3nnc(-c4c(C)cc(C)cc4O)cc3C(F)F)[C@@H]2C1 (single isomer, unassigned) [Example 512]	276
CC(=O)N1CC[C@H]2CCN(c3nnc(-c4c(C)cc(C)cc4O)cc3C(F)F)[C@H]2C1 (single isomer, unassigned) [Example 513]	1770
Cc1cc(C)c(-c2ccc(N3CC4(CC[C@@H](O)C4)C3)nn2)c(O)c1 (stereo in doubt) [Example 94, 2-[6-(2-hydroxy-4,6-dimethyl-phenyl)pyridazin-3-yl]-2-azaspiro[3.4]octan-6-ol]	1920
Cc1cc(C(F)(F)F)cc(O)c1-c1ccc(N2CCO[C@H](CO)C2=O)nn1 (stereo in doubt) [Example 368, 2-(hydroxymethyl)-4-[6-[2-hydroxy-6-methyl-4-(trifluoromethyl)phenyl]pyridazin-3-yl]morpholin-3-one]	188
Cc1cc(C)c(-c2ccc(N3CCC(C#N)CC3)nn2)c(O)c1 [Example 2, 1-[6-(2-hydroxy-4,6-dimethyl-phenyl)pyridazin-3-yl]piperidine-4-carbonitrile]	1960
Cc1cc(C)c(-c2ccc(N3CCC4(CC3)CC(O)C4)nn2)c(O)c1 [Example 3, 7-[6-(2-hydroxy-4,6-dimethyl-phenyl)pyridazin-3-yl]-7-azaspiro[3.5]nonan-2-ol]	2030
Cc1cc(C)c(-c2ccc(N3CCC4(CC3)CNC4)nn2)c(O)c1 [Example 7, 2-[6-(2,7-diazaspiro[3.5]nonan-7-yl)pyridazin-3-yl]-3,5-dimethyl-phenol; 2,2,2-trifluoroacetic acid]	5470
NCC1CCN(c2ccc(-c3c(O)cc(Cl)cc3Cl)nn2)CC1 [Example 19, 2-[6-[4-(aminomethyl)-1-piperidyl]pyridazin-3-yl]-3,5-dichloro-phenol]	1480
Cc1cc(C(F)(F)F)cc(O)c1-c1ccc(N2CCOC(CN(C)C)C2)nn1 (stereo not drawn) [Example 24, 2-[6-[2-[(dimethylamino)methyl]morpholin-4-yl]pyridazin-3-yl]-3-methyl-5-(trifluoromethyl)phenol]	638
Cc1cc(C(F)(F)F)cc(O)c1-c1ccc(N2CCO[C@H](CN(C)C)C2)nn1 [Example 27, 2-[6-[(2R)-2-[(dimethylamino)methyl]morpholin-4-yl]pyridazin-3-yl]-3-methyl-5-(trifluoromethyl)phenol]	1260
NC1CC2(CCN(c3ccc(-c4c(O)cc(Cl)cc4Cl)nn3)CC2)C1 [Example 32, 2-[6-(2-amino-7-azaspiro[3.5]nonan-7-yl)pyridazin-3-yl]-3,5-dichloro-phenol]	3500
Oc1cc(Cl)cc(Cl)c1-c1ccc(N2CCC3(CC2)CC(O)C3)nn1 [Example 37, 7-[6-(2,4-dichloro-6-hydroxy-phenyl)pyridazin-3-yl]-7-azaspiro[3.5]nonan-2-ol]	893
CN(C)C[C@@H]1CN(c2ccc(-c3c(O)cc(Cl)cc3Cl)nn2)CCO1 [Example 43, 3,5-dichloro-2-[6-[(2R)-2-[(dimethylamino)methyl]morpholin-4-yl]pyridazin-3-yl]phenol]	603
OC[C@@H]1CN(c2ccc(-c3c(O)cccc3F)nn2)CCO1 [Example 44, 3-fluoro-2-[6-[(2S)-2-(hydroxymethyl)morpholin-4-yl]pyridazin-3-yl]phenol]	862
CC(=O)NC1CC2(CCN(c3ccc(-c4c(O)cc(Cl)cc4Cl)nn3)CC2)C1 [Example 47, N-[7-[6-(2,4-dichloro-6-hydroxy-phenyl)pyridazin-3-yl]-7-azaspiro[3.5]nonan-2-yl]acetamide]	1040
